According to patent US8546375B2, “(3-(4-(aminomethyl)phenoxy or phenylthio)azetidin-1-yl)(5-phenyl-1,3,4-oxadiazol-2-yl)methanone compounds” (AstraZeneca AB, priority 2010, dated 2013):

Tests used:
[1] = target: T1, Melanin Concentrating Hormone Receptor 1 (MCHR1) (Homo sapiens, UniProt Q99705); assay: MCHR1 Receptor Activation Assay (GTPγ^35S); format: biochemical; settings: read-out: GTPγ^35S IC50
T1 construct: expressed in transfected cells
T1 sequence (Q99705 whole entry): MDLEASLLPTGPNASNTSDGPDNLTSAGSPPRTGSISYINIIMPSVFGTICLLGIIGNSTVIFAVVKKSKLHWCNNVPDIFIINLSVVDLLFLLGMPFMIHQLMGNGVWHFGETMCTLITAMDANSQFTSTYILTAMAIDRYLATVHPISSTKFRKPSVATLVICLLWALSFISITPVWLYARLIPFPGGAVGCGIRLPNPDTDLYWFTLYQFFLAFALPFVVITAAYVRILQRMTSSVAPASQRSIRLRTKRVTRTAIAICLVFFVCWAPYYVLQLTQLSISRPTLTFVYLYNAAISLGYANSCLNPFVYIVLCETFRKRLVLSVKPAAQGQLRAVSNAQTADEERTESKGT

Cc1cc(OC2CN(C(=O)c3nnc(-c4ccccc4)o3)C2)ccc1CN(C)C [Example 21, (3-(4-((Dimethylamino)methyl)-3-methylphenoxy)azetidin-1-yl)(5-phenyl-1,3,4-oxadiazol-2-yl)methanone]
IC50 [1]: 22 nM
melting point: 135 °C
